Assays:
Assay type in all cases: cell-based
HRH2 [1] = biological target: T1, HRH2 (Homo sapiens, UniProt P25021); assay: H2 blockade assay: cAMP assay, antagonist mode (agonist challenge at EC80); details: for antagonist activity against H2 (in words): in-vitro
Protocol: The cAMP assays can monitor the activation of a GPCR via Gi and Gs secondary messenger signalling in a homogenous, non-imaging assay format using, for example, a technology developed by DiscoverX called Enzyme Fragment Complementation (EFC) with β-galactosidase (β-Gal) as the functional reporter.
The cannabinoid-based pharmaceutical composition according to FIG. 1 was subjected to an H2 blockade assay. For antagonist determination, cells were pre-incubated with sample followed by agonist challenge at the EC80 concentration. Media was aspirated from cells and replaced with 10 μL 1:1 BSS/Hepes: cAMP XS+ Ab reagent. 5 μL of 4X compound was added to the cells and incubated at […] or room temperature for 30 minutes. 5 μL of 4X EC80 agonist was added to cells and incubated at 37° C. or room temperature for 30 or 60 minutes.
The enzyme is split into two complementary portions, Enzyme Acceptor (EA) and Enzyme Donor (ED). ED is fused to cAMP and in the assay competes with cAMP generated by cells for binding to a cAMP-specific antibody. Active β-Gal is formed by complementation of exogenous EA to any unbound ED-cAMP.

HRH2 [2] = biological target: T1, HRH2; assay: cAMP assay, agonist mode; details: for % Response Average / % Response Replicate 1 / % Response Replicate 2: 10 uM, cAMP, HRH2, Agonist mode
HRH1 [3] = biological target: T2, HRH1 (Homo sapiens, UniProt P35367); assay: Calcium Flux assay, agonist mode; details: for % Response Average / % Response Replicate 1 / % Response Replicate 2: 10 uM, Calcium Flux, HRH1, Agonist mode
T2 sequence (P35367 whole entry): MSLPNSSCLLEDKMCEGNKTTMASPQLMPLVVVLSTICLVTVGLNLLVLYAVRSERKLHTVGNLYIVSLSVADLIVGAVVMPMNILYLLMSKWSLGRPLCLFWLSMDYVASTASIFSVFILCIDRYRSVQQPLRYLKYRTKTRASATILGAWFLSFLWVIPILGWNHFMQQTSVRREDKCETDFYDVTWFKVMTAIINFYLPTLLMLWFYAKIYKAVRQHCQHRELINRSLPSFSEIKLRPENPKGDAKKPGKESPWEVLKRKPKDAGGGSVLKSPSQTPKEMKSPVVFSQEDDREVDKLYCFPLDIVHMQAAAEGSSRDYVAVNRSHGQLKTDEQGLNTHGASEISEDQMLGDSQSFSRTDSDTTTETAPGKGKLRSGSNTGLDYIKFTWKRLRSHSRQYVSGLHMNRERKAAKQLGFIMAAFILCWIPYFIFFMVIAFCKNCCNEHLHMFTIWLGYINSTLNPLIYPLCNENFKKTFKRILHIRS

HRH1 [4] = biological target: T2, HRH1; assay: Calcium Flux assay, antagonist mode; details: for % Response Average / % Response Replicate 1 / % Response Replicate 2: 10 uM, Calcium Flux, HRH1, Antagonist mode; for antagonist activity against H1 (in words): single concentration of 10 μM
[5] = 10 uM, cAMP, HRH2, Antagonist mode

T1 sequence (P25021 whole entry, the tested form may be a part): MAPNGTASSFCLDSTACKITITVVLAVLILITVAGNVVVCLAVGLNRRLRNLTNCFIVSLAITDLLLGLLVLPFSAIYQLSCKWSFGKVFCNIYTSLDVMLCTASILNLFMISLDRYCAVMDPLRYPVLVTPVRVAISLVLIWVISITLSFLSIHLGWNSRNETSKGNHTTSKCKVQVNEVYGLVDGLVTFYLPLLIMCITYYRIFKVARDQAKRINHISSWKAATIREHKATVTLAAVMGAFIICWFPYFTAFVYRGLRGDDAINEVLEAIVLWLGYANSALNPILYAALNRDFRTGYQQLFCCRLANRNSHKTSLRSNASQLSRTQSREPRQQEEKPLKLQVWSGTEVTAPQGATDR

Structure (SMILES)	IC50 (HRH2 [1]; dose-response / concentration dependent assay) [nM]	antagonist activity against H2 (in words) (HRH2 [1])	inhibition at 10 µM (HRH2 [1]; preliminary assay, single concentration of 10 μM, read-out: inhibited H2 by %) [%]	% Response Average (HRH2 [2]) [%]	% Response Replicate 1 (HRH2 [2]) [%]	% Response Replicate 2 (HRH2 [2]) [%]	agonist activity against H2 (in words) (HRH2 [2]; single concentration of 10 μM)	% Response Average (HRH1 [3]) [%]	% Response Replicate 1 (HRH1 [3]) [%]	% Response Replicate 2 (HRH1 [3]) [%]	agonist activity against H1 (in words) (HRH1 [3]; single concentration of 10 μM)	% Response Average (HRH1 [4]) [%]	% Response Replicate 1 (HRH1 [4]) [%]	% Response Replicate 2 (HRH1 [4]) [%]	antagonist activity against H1 (in words) (HRH1 [4])	% Response Average (HRH2 [1]; [5]) [%]	% Response Replicate 1 (HRH2 [1]; [5]) [%]	% Response Replicate 2 (HRH2 [1]; [5]) [%]
C=C(C)[C@@H]1CCC(C)=C[C@H]1c1c(O)cc(CCCCC)cc1O [CBD, Cannabidiol]	1530	potent antagonist	91.5	5.1	4.7	5.5	no agonist activity	0.3	0.3	0.2	no agonist or antagonist activity	10.1	7.6	12.5	no agonist or antagonist activity			
CCCCCc1cc(O)c2c(c1)OC(C)(C)[C@@H]1CCC(C)=C[C@@H]21 [THC, Tetrahydrocannabinol, reference compound]		none		3.2	4.3	2.0		−0.7	−0.5	−0.9		78.2	77.0	79.3	showed antagonist activity	7.7	−2.0	17.3

From patent US20210369642A1, “THERAPEUTIC CANNABINOID DERIVATIVES COMPOSITION AS HISTAMINE 2 (H2) BLOCKING AGENTS” (priority 2018, published 2021)
